Reference: patent publication US20230406843A1, “Progranulin Modulators and Methods of Using the Same” (ARKUDA THERAPEUTICS, priority 2020, published 2023)

Legend:
progranulin [1] = assay: In vivo progranulin secretion assay after oral administration; details: oral administration at 5 mg/kg; progranulin secretion post dose relative to the control
Description: In vivo Assays: Progranulin can be detected in tissue sample or biofluids including blood, plasma, brain, liver and cerebrospinal fluid (CSF) from different non-human animals including rat, mouse, dog, and cynomolgus monkeys. Progranulin concentration can be detected using one or more methods including an enzyme-linked immunosorbent assay (ELISA). Non-human animals including rat, mouse, dog, and cynomolgus monkeys are administered a compound as disclosed herein by one of several routes of administration including oral, subcutaneous, and intravenous routes of administration. Samples of tissue or biofluids are collected at specific times before and following compound administration. The amount of progranulin in a specific sample collected after compound administration is compared to the amount of progranulin detected in a sample of the same tissue or biofluid obtained prior to compound administration. […] Test compounds can be administered one or more times. When compounds are administered more than one time, the number of doses and the intervals between doses can be adjusted to any combination. For example, a test compound can be administered a single time, a test compound can be administered 8 times at intervals of 12 hours, and a test compound can be administered 4 times at intervals of 24 hours. The ability of a compound to increase progranulin can be quantified in several ways. […]

progranulin [2] = assay: Progranulin induction cellular assay (ELISA of secreted mouse PGRN); assay type: cell-based; details: progranulin induction assay; mouse pMG, primary cortical neurons and BV-2 cell lines named, cell type not given; ELISA-based readout; read-out: EC50
Summary of the method: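 Secreted mouse PGRN in culture medium is measured by ELISA. Cells tested are BV-2, primary cortical neurons and primary microglia. BV-2 cells are plated a day ahead, allowed 1 h to attach, then incubated 16 h.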

Row | EC50 (progranulin [2]) [nM] | Compound | Activity Level (progranulin [1])
1 | 90 | N[C@@H]1CC[C@@H](C(=O)N2CCc3ccccc3[C@@H]2c2ccc(F)cc2)OC1 [Compound 5015, ((2S,5R)-5-aminotetrahydro-2H-pyran-2-yl)((S)-1-(4-fluorophenyl)-3,4-dihydroisoquinolin-2(1H)-yl)methanone] | 7 (at least about 300% (Activity level 7))
2 | 79 | N[C@H]1CC[C@H](C(=O)N2CCc3ccccc3[C@@H]2c2ccc(F)cc2)OC1 [Compound 5042, ((2R,5S)-5-aminotetrahydro-2H-pyran-2-yl)((S)-1-(4-fluorophenyl)-3,4-dihydroisoquinolin-2(1H)-yl)methanone] | 6 (at least about 250% (Activity level 6))
